# Laboratory results published in patent publication US20210322582A1, “RADIOACTIVE IMIDAZOTHIADIAZOLE DERIVATIVE COMPOUND” (Nihon Medi-Physics Co., Ltd., priority 2018, published 2021).
# Several values for one entry are separate records, joined by “and”; a condition that tells them apart may be missing. Equal entries are not always repeated.
# Tested on: HT-29-transplanted tumor
# Assay: Biodistribution of [^111In]ITDA1 in HT-29 cancer-bearing mouse
# Assay type: in vivo
# Conditions: for Accumulation of radioactivity: Blood / Accumulation of radioactivity: Brain / Accumulation of radioactivity: Heart / Accumulation of radioactivity: Intestines / Accumulation of radioactivity: Kidney / Accumulation of radioactivity: Liver / Accumulation of radioactivity: Lungs / Accumulation of radioactivity: Muscle / Accumulation of radioactivity: Pancreas / Accumulation of radioactivity: Spleen / Accumulation of radioactivity: Stomach / Accumulation of radioactivity: Tumor (HT-29) / Tumor/blood / Tumor/muscle: HT-29 mouse
# Procedure: HT-29 cells (5×10^6 cells/mouse) were subcutaneously inoculated into the left shoulder of each of 5-week old male BALB/c nude mice (purchased from Shimizu Laboratory Supplies Co., Ltd., the same applies to the following Examples). A saline solution (100 μL) in which [^111In]ITDA1 (37 kBq) had been dissolved was administered to each of the HT-29 cancer-bearing mice (n=5) via the tail vein. The mice were slaughtered after the lapse of 1, 4, 8, and 24 hours from the administration, and the blood, spleen, pancreas, stomach, intestines, kidney, liver, heart, lungs, brain, HT-29-transplanted tumor, and muscle were recovered. The weight of each organ was measured, and the amount of radioactivity in each organ was measured by using a gamma counter. The accumulation of radioactivity in each organ was expressed by % ID (injected dose)/g obtained by dividing the ratio of the amount of radioactivity of each organ to the administered amount of radioactivity by the organ weight.
smiles,measurement,setting,value
"NS(=O)(=O)c1nn2cc(-c3ccc(NC(=O)CN4CCN(CC(=O)O)CCN(CC(=O)O)CCN(CC(=O)O)CC4)cc3)nc2s1.[111In+3] [[^111In]ITDA1, [^111In]indium(III)2,2′,2″-(10-(2-oxo-2-((4-(2-sulfamoylimidazo[2,1-b][1,3,4]thiadiazol-6-yl)phenyl)amino)ethyl)-1,4,7,10-tetraazacyclododecan-1,4,7-triyl) triacetic acid]",Accumulation of radioactivity: Blood,1 h after administration,0.27 ± 0.03 % ID/tissue weight (g)
same,Accumulation of radioactivity: Brain,1 h after administration,0.30 ± 0.02 % ID/tissue weight (g)
same,Accumulation of radioactivity: Heart,1 h after administration,7.58 ± 1.20 % ID/tissue weight (g)
same,Accumulation of radioactivity: Intestines,1 h after administration,10.86 ± 1.27 % ID/tissue weight (g)
same,Accumulation of radioactivity: Kidney,1 h after administration,111.20 ± 12.39 % ID/tissue weight (g)
same,Accumulation of radioactivity: Liver,1 h after administration,3.59 ± 0.98 % ID/tissue weight (g)
same,Accumulation of radioactivity: Lungs,1 h after administration,13.49 ± 5.52 % ID/tissue weight (g)
same,Accumulation of radioactivity: Muscle,1 h after administration,5.44 ± 1.59 % ID/tissue weight (g)
same,Accumulation of radioactivity: Pancreas,1 h after administration,31.32 ± 5.29 % ID/tissue weight (g)
same,Accumulation of radioactivity: Spleen,1 h after administration,0.33 ± 0.10 % ID/tissue weight (g)
same,Accumulation of radioactivity: Stomach,1 h after administration,2.59 ± 0.69 % ID
same,Accumulation of radioactivity: Tumor (HT-29),1 h after administration,3.81 ± 0.79 % ID/tissue weight (g)
same,Tumor/blood,1 h after administration,14.41 ± 3.35
same,Tumor/muscle,1 h after administration,0.74 ± 0.25
same,Accumulation of radioactivity: Blood,4 h after administration,0.25 ± 0.18 % ID/tissue weight (g)
same,Accumulation of radioactivity: Brain,4 h after administration,0.35 ± 0.05 % ID/tissue weight (g)
same,Accumulation of radioactivity: Heart,4 h after administration,3.49 ± 0.74 % ID/tissue weight (g)
same,Accumulation of radioactivity: Intestines,4 h after administration,14.20 ± 1.28 % ID/tissue weight (g)
same,Accumulation of radioactivity: Kidney,4 h after administration,115.12 ± 8.70 % ID/tissue weight (g)
same,Accumulation of radioactivity: Liver,4 h after administration,3.86 ± 0.92 % ID/tissue weight (g)
same,Accumulation of radioactivity: Lungs,4 h after administration,5.09 ± 1.69 % ID/tissue weight (g)
same,Accumulation of radioactivity: Muscle,4 h after administration,2.69 ± 0.76 % ID/tissue weight (g)
same,Accumulation of radioactivity: Pancreas,4 h after administration,18.81 ± 2.04 % ID/tissue weight (g)
same,Accumulation of radioactivity: Spleen,4 h after administration,0.31 ± 0.12 % ID/tissue weight (g)
same,Accumulation of radioactivity: Stomach,4 h after administration,5.22 ± 0.79 % ID
same,Accumulation of radioactivity: Tumor (HT-29),4 h after administration,4.20 ± 0.68 % ID/tissue weight (g)
same,Tumor/blood,4 h after administration,21.70 ± 8.65
same,Tumor/muscle,4 h after administration,1.62 ± 0.33
same,Accumulation of radioactivity: Blood,8 h after administration,0.18 ± 0.02 % ID/tissue weight (g)
same,Accumulation of radioactivity: Brain,8 h after administration,0.41 ± 0.05 % ID/tissue weight (g)
same,Accumulation of radioactivity: Heart,8 h after administration,2.16 ± 0.31 % ID/tissue weight (g)
same,Accumulation of radioactivity: Intestines,8 h after administration,14.99 ± 1.27 % ID/tissue weight (g)
same,Accumulation of radioactivity: Kidney,8 h after administration,83.81 ± 7.88 % ID/tissue weight (g)
same,Accumulation of radioactivity: Liver,8 h after administration,3.15 ± 0.78 % ID/tissue weight (g)
same,Accumulation of radioactivity: Lungs,8 h after administration,3.54 ± 1.19 % ID/tissue weight (g)
same,Accumulation of radioactivity: Muscle,8 h after administration,1.75 ± 0.37 % ID/tissue weight (g)
same,Accumulation of radioactivity: Pancreas,8 h after administration,9.80 ± 2.34 % ID/tissue weight (g)
same,Accumulation of radioactivity: Spleen,8 h after administration,0.21 ± 0.05 % ID/tissue weight (g)
same,Accumulation of radioactivity: Stomach,8 h after administration,6.09 ± 0.82 % ID
same,Accumulation of radioactivity: Tumor (HT-29),8 h after administration,5.16 ± 0.62 % ID/tissue weight (g)
same,Tumor/blood,8 h after administration,29.14 ± 5.15
same,Tumor/muscle,8 h after administration,3.03 ± 0.66
same,Accumulation of radioactivity: Blood,24 h after administration,0.16 ± 0.02 % ID/tissue weight (g)
same,Accumulation of radioactivity: Brain,24 h after administration,0.48 ± 0.03 % ID/tissue weight (g)
same,Accumulation of radioactivity: Heart,24 h after administration,1.56 ± 0.30 % ID/tissue weight (g)
same,Accumulation of radioactivity: Intestines,24 h after administration,17.99 ± 1.59 % ID/tissue weight (g)
same,Accumulation of radioactivity: Kidney,24 h after administration,65.13 ± 7.13 % ID/tissue weight (g)
same,Accumulation of radioactivity: Liver,24 h after administration,2.21 ± 0.34 % ID/tissue weight (g)
same,Accumulation of radioactivity: Lungs,24 h after administration,2.06 ± 0.66 % ID/tissue weight (g)
same,Accumulation of radioactivity: Muscle,24 h after administration,1.43 ± 0.53 % ID/tissue weight (g)
same,Accumulation of radioactivity: Pancreas,24 h after administration,8.13 ± 0.91 % ID/tissue weight (g)
same,Accumulation of radioactivity: Spleen,24 h after administration,0.42 ± 0.18 % ID/tissue weight (g)
same,Accumulation of radioactivity: Stomach,24 h after administration,8.74 ± 0.46 % ID
same,Accumulation of radioactivity: Tumor (HT-29),24 h after administration,8.71 ± 1.41 % ID/tissue weight (g)
same,Tumor/blood,24 h after administration,53.56 and 53.56 ± 5.53
same,Tumor/muscle,24 h after administration,6.59 and 6.59 ± 2.18
same,Accumulation in the HT-29-transplanted tumor,one hour after administration,3.81 % ID/g
